For one data set, the system named is healthy subjects. Briefly: First-in-human study, single ascending dose (SAD) part: safety and tolerability. Format: in vivo. Conditions: for number of AEs: healthy subjects. The text has this: A First-In-Human, Randomized, Placebo-Controlled, Double-Blind, SAD/MAD Study to Assess the Safety, Tolerability, Pharmacokinetics, and Pharmacodynamics of ACI-3024
The objective of the study is to assess the safety, tolerability, pharmacokinetics (PK), and pharmacodynamics (PD) of single ascending doses (SAD) and multiple ascending doses (MAD) of ACI-3024 in a first-in-human, randomized, placebo-controlled, double-blind, sequential SAD/MAD study with open-label food effect and pharmacodynamic assessment arms. The study comprises different parts to be conducted in Healthy Volunteers: • 1) one Single Ascending Dose (SAD) part in which several cohorts are being investigated with single ascending doses of ACI-3024. The food effect is also explored in this part. • 2) one Multiple Ascending Dose (MAD) part in which several cohorts are being investigated with multiple ascending doses of ACI-3024. Each study part is assessing the safety, tolerability, pharmacokinetics and pharmacodynamics of ACI-3024.
This part comprised a single dose, sequential group design. Overall, 40 healthy non-elderly male subjects were enrolled in 5 cohorts (Cohorts S1 to S5), with each cohort consisting of 8 subjects.
No Japanese subjects were enrolled in Cohort S1. For Cohorts S2 through S5, 4 Japanese subjects and 4 non Japanese subjects were enrolled.
In each of Cohorts S1 to S5, 6 subjects (including 3 Japanese subjects in Cohorts S2 through S5) received ACI-3024 and 2 subjects (including 1 Japanese subject in Cohorts S2 through S5) received placebo. All doses were administered in the fasting state in accordance with a randomization schedule on the morning of Day 1, except for subjects in the food-effect cohort (Cohort S4), who were dosed 30 minutes after starting a high-fat breakfast in Treatment Period 2 only. Each subject received only a single dose of ACI-3024 or placebo during the study, except for subjects in the food effect cohort, who received a single dose of ACI-3024 or placebo in the fasting state followed by a single dose of ACI-3024 in the fed state. Thus, subjects in Cohort S4 received either 2 identical doses of ACI-3024 (6 subjects) or 1 dose of placebo and 1 dose of ACI-3024 (2 subjects). Six subjects of Cohort S4 received 750 mg dose of ACI-3024 and 2 subjects received placebo. After a period of wash-up all 8 subjects of Cohort S4 received a fat-breakfast and a 750 mg dose of ACI-3024.
The total duration of study participation for each subject (from Screening through Follow-up visit) was approximately 37 days, except for subjects in the food-effect cohort (Cohort S4), for whom the total duration was up to approximately 44 days.

The nature of data set [1]: CSF concentrations of ACI-3024 in MAD cohort MAD-HV3. Format: in vivo. The protocol: Methods for measuring the amount of administered compound, such as ACI-3024, in CSF of a subject are well know in the art. As an example, CSF can be drawn by lumbar puncture and content of the administered compound can be analysed by a LC-MS/MS method, among other methods.
Cohorts MAD-HV1 to MAD-HV3 comprised 10 elderly non-Japanese male or female subjects, 8 were treated with ACI-3024 and 2 were being given placebo. Cohort MAD-HV4 comprised 5 non-elderly Japanese subjects (4 treated with ACI-3024 and 1 given placebo) and 5 […] (4 treated with ACI-3024 and 1 given placebo). Only subjects from MAD HV3 cohort underwent CSF samplings to explore the CSF inflammatory markers, CSF PK, and CSF PD of ACI-3024. For all subjects, dosing was on […], inclusive, and a final single dose administration occurred on […]. Dose in cohort MAD HV1 was 500 mg of ACI-3024 or placebo, QD, fasted. Dose in cohorts MAD HV2 and MAD HV4 was 500 mg of ACI-3024 or placebo, BID (“bis in die” ie., twice a day), fed. Dose in cohort MAD HV3 was 1400 mg of ACI-3024 or placebo, QD (“quaque die” (once a day), fed.

The structures appear in SMILES notation. “And” between values parts separate entries of the source, which are not always exact repeats. Identical values can stand only once. Where only a bound is given, the exact number is not on record here.

Regarding `Fc1ccc2c3c([nH]c2c1)CCN(c1ccc2oc(N4CCOCC4)nc2c1)C3` [ACI-3024], the “SAEs or AEs leading to discontinuation” value in the data set with healthy subjects (SAD cohorts, 25 to 1500 mg) is given as “no SAEs or AEs leading to discontinuation from the study”. The “vital signs, ECG values, physical or neurological examinations” value in the data set on healthy subjects (SAD cohorts, 25 to 1500 mg) is “no clinically significant observations”. In the data set with healthy subjects (SAD cohorts, 25 to 1500 mg (all AEs of the part, placebo included)), the “severity of AEs” value is “mild”. Also, in the data set with healthy subjects (SAD study, up to the highest administered dose of 1500 mg), the “overall safety and tolerability” value is “safe and well tolerated”. Also, the “number of AEs” value in the data set on healthy subjects (single oral dose 25 mg) was determined as 2; with healthy subjects (single oral dose 100 mg) it was 0; with healthy subjects (single oral dose 300 mg) it was 3; with healthy subjects (single oral dose 750 mg (fed and fasted states)), 6; in the data set with healthy subjects (single oral dose 1500 mg), 2. The “CSF pre-dose concentrations versus target” value in data set [1] (MAD, 1400 mg, target established in animal models) is over 30 nM. Besides, the Kp in data set [1] (both sexes, human, CSF, oral, elderly subjects, multiple doses of 1400 mg QD (fed), read-out: CSF concentration as share of the corresponding plasma concentration) was 0.003 to 0.015. Moreover, the “dose that would provide sufficient CSF exposure (30 nM)” value in data set [1] (extrapolated from 1400 mg CSF data) was 300 to 400 mg/day. For the same molecule, the “pre-dose (Cmin) CSF concentration” value in data set [1] (multiple oral doses of 1400 mg, Day 7) was 36.4±13.6 ng/mL and 90 nM.

(Values after US20230123140A1, “DOSE TREATMENTS OF TAUOPATHIES” (AC Immune SA, priority 2020, published 2023).)
